{"source": "patent US11149030B2", "about": "“Plants having increased tolerance to herbicides” (BASF AGRO B.V., priority 2016, dated 2021)", "system": "transgenic T2 Arabidopsis plants", "assay": "Greenhouse spray of transgenic T2 Arabidopsis plants, herbicide injury 0 to 100% phytotox rating (Table A)", "format": "in vivo", "conditions": "14 days after treatment", "procedure": "Additionally, transgenic T2 Arabidopsis plants are tested for improved tolerance to herbicides in greenhouse studies with the following herbicides: methyl 2-[2-chloro-5-[3-chloro-5-(trifluoromethyl)-2-pyridyl]-4-fluoro-phenoxy]-2-methoxy-acetate, and photosynthesis inhibitor diuron as negative control.\nTable A: Transgenic T2 Arabidopsis plants, four weeks old, were sprayed in the greenhouse with the indicated amount of compound+1% (v/v) MSO. Herbicide injury was evaluated 14 days after treatment with a 0 to 100% phytotox rating scale where 0 is no injury relative to an unsprayed wild type check and 100% is completely dead.", "note": "“And” between values parts separate entries of the source, which are not always exact repeats. Identical values can stand only once."}
{"smiles": "COC(=O)C(OC)Oc1cc(-c2ncc(C(F)(F)F)cc2Cl)c(F)cc1Cl", "note": "(centres unmarked) [methyl 2-[2-chloro-5-[3-chloro-5-(trifluoromethyl)-2-pyridyl]-4-fluoro-phenoxy]-2-methoxy-acetate]", "values": [{"measurement": "Herbicide injury, 0 to 100% phytotox rating", "setting": "construct ALOMY_PPO2 F438I, 50 g ai/ha + 1% (v/v) MSO", "value": 48, "unit": "%"}, {"measurement": "Herbicide injury, 0 to 100% phytotox rating", "setting": "construct ALOMY_PPO2 F438I, 100 g ai/ha + 1% (v/v) MSO", "value": 64, "unit": "%"}, {"measurement": "Herbicide injury, 0 to 100% phytotox rating", "setting": "construct ALOMY_PPO2 F438I, 200 g ai/ha + 1% (v/v) MSO", "value": 79, "unit": "%"}, {"measurement": "Herbicide injury, 0 to 100% phytotox rating", "setting": "construct ALOMY_PPO2 F438M, 50 g ai/ha + 1% (v/v) MSO", "value": 30, "unit": "%"}, {"measurement": "Herbicide injury, 0 to 100% phytotox rating", "setting": "construct ALOMY_PPO2 F438M, 100 g ai/ha + 1% (v/v) MSO", "value": 43, "unit": "%"}, {"measurement": "Herbicide injury, 0 to 100% phytotox rating", "setting": "construct ALOMY_PPO2 F438M, 200 g ai/ha + 1% (v/v) MSO", "value": 69, "unit": "%"}, {"measurement": "Herbicide injury, 0 to 100% phytotox rating", "setting": "construct ALOMY_PPO2 F438V, 50 g ai/ha + 1% (v/v) MSO", "value": 36, "unit": "%"}, {"measurement": "Herbicide injury, 0 to 100% phytotox rating", "setting": "construct ALOMY_PPO2 F438V, 100 g ai/ha + 1% (v/v) MSO", "value": 55, "unit": "%"}, {"measurement": "Herbicide injury, 0 to 100% phytotox rating", "setting": "construct ALOMY_PPO2 F438V, 200 g ai/ha + 1% (v/v) MSO", "value": 69, "unit": "%"}, {"measurement": "Herbicide injury, 0 to 100% phytotox rating", "setting": "construct ALOMY_PPO2 L415A_F438M, 50 g ai/ha + 1% (v/v) MSO", "value": 23, "unit": "%"}, {"measurement": "Herbicide injury, 0 to 100% phytotox rating", "setting": "construct ALOMY_PPO2 L415A_F438M, 100 g ai/ha + 1% (v/v) MSO", "value": 28, "unit": "%"}, {"measurement": "Herbicide injury, 0 to 100% phytotox rating", "setting": "construct ALOMY_PPO2 L415A_F438M, 200 g ai/ha + 1% (v/v) MSO", "value": 39, "unit": "%"}, {"measurement": "Herbicide injury, 0 to 100% phytotox rating", "setting": "construct ALOMY_PPO2 L415E_F438M, 50 g ai/ha + 1% (v/v) MSO", "value": 15, "unit": "%"}, {"measurement": "Herbicide injury, 0 to 100% phytotox rating", "setting": "construct ALOMY_PPO2 L415E_F438M, 100 g ai/ha + 1% (v/v) MSO", "value": 29, "unit": "%"}, {"measurement": "Herbicide injury, 0 to 100% phytotox rating", "setting": "construct ALOMY_PPO2 L415E_F438M, 200 g ai/ha + 1% (v/v) MSO", "value": 43, "unit": "%"}, {"measurement": "Herbicide injury, 0 to 100% phytotox rating", "setting": "construct ALOMY_PPO2 L415G_F438M (two table lines), 50 g ai/ha + 1% (v/v) MSO", "value": "36% and 26%"}, {"measurement": "Herbicide injury, 0 to 100% phytotox rating", "setting": "construct ALOMY_PPO2 L415G_F438M (two table lines), 100 g ai/ha + 1% (v/v) MSO", "value": "46% and 34%"}, {"measurement": "Herbicide injury, 0 to 100% phytotox rating", "setting": "construct ALOMY_PPO2 L415G_F438M (two table lines), 200 g ai/ha + 1% (v/v) MSO", "value": "59% and 46%"}, {"measurement": "Herbicide injury, 0 to 100% phytotox rating", "setting": "construct ALOMY_PPO2 L415Q_F438M, 50 g ai/ha + 1% (v/v) MSO", "value": 18, "unit": "%"}, {"measurement": "Herbicide injury, 0 to 100% phytotox rating", "setting": "construct ALOMY_PPO2 L415Q_F438M, 100 g ai/ha + 1% (v/v) MSO", "value": 23, "unit": "%"}, {"measurement": "Herbicide injury, 0 to 100% phytotox rating", "setting": "construct ALOMY_PPO2 L415Q_F438M, 200 g ai/ha + 1% (v/v) MSO", "value": 41, "unit": "%"}, {"measurement": "Herbicide injury, 0 to 100% phytotox rating", "setting": "construct ALOMY_PPO2 R137L_F438L, 50 g ai/ha + 1% (v/v) MSO", "value": 55, "unit": "%"}, {"measurement": "Herbicide injury, 0 to 100% phytotox rating", "setting": "construct ALOMY_PPO2 R137L_F438L, 100 g ai/ha + 1% (v/v) MSO", "value": 59, "unit": "%"}, {"measurement": "Herbicide injury, 0 to 100% phytotox rating", "setting": "construct ALOMY_PPO2 R137L_F438L, 200 g ai/ha + 1% (v/v) MSO", "value": 71, "unit": "%"}, {"measurement": "Herbicide injury, 0 to 100% phytotox rating", "setting": "construct ALOMY_PPO2 R137L_F438M, 50 g ai/ha + 1% (v/v) MSO", "value": 50, "unit": "%"}, {"measurement": "Herbicide injury, 0 to 100% phytotox rating", "setting": "construct ALOMY_PPO2 R137L_F438M, 100 g ai/ha + 1% (v/v) MSO", "value": 68, "unit": "%"}, {"measurement": "Herbicide injury, 0 to 100% phytotox rating", "setting": "construct ALOMY_PPO2 R137L_F438M, 200 g ai/ha + 1% (v/v) MSO", "value": 70, "unit": "%"}, {"measurement": "Herbicide injury, 0 to 100% phytotox rating", "setting": "construct ALOMY_PPO2 R137L_F438V, 50 g ai/ha + 1% (v/v) MSO", "value": 39, "unit": "%"}, {"measurement": "Herbicide injury, 0 to 100% phytotox rating", "setting": "construct ALOMY_PPO2 R137L_F438V, 100 g ai/ha + 1% (v/v) MSO", "value": 58, "unit": "%"}, {"measurement": "Herbicide injury, 0 to 100% phytotox rating", "setting": "construct ALOMY_PPO2 R137L_F438V, 200 g ai/ha + 1% (v/v) MSO", "value": 65, "unit": "%"}, {"measurement": "Herbicide injury, 0 to 100% phytotox rating", "setting": "construct AMATU_PPO2 L397C_F420M, 50 g ai/ha + 1% (v/v) MSO", "value": 58, "unit": "%"}, {"measurement": "Herbicide injury, 0 to 100% phytotox rating", "setting": "construct AMATU_PPO2 L397C_F420M, 100 g ai/ha + 1% (v/v) MSO", "value": 63, "unit": "%"}, {"measurement": "Herbicide injury, 0 to 100% phytotox rating", "setting": "construct AMATU_PPO2 L397C_F420M, 200 g ai/ha + 1% (v/v) MSO", "value": 71, "unit": "%"}, {"measurement": "Herbicide injury, 0 to 100% phytotox rating", "setting": "construct AMATU_PPO2 L397D_F420V, 50 g ai/ha + 1% (v/v) MSO", "value": 49, "unit": "%"}, {"measurement": "Herbicide injury, 0 to 100% phytotox rating", "setting": "construct AMATU_PPO2 L397D_F420V, 100 g ai/ha + 1% (v/v) MSO", "value": 59, "unit": "%"}, {"measurement": "Herbicide injury, 0 to 100% phytotox rating", "setting": "construct AMATU_PPO2 L397D_F420V, 150 g ai/ha + 1% (v/v) MSO", "value": 67, "unit": "%"}, {"measurement": "Herbicide injury, 0 to 100% phytotox rating", "setting": "construct AMATU_PPO2 L397E_F420M, 50 g ai/ha + 1% (v/v) MSO", "value": 59, "unit": "%"}, {"measurement": "Herbicide injury, 0 to 100% phytotox rating", "setting": "construct AMATU_PPO2 L397E_F420M, 100 g ai/ha + 1% (v/v) MSO", "value": 68, "unit": "%"}, {"measurement": "Herbicide injury, 0 to 100% phytotox rating", "setting": "construct AMATU_PPO2 L397E_F420M, 200 g ai/ha + 1% (v/v) MSO", "value": 79, "unit": "%"}, {"measurement": "Herbicide injury, 0 to 100% phytotox rating", "setting": "construct AMATU_PPO2 L397E_F420V, 50 g ai/ha + 1% (v/v) MSO", "value": 60, "unit": "%"}, {"measurement": "Herbicide injury, 0 to 100% phytotox rating", "setting": "construct AMATU_PPO2 L397E_F420V, 100 g ai/ha + 1% (v/v) MSO", "value": 76, "unit": "%"}, {"measurement": "Herbicide injury, 0 to 100% phytotox rating", "setting": "construct AMATU_PPO2 L397E_F420V, 200 g ai/ha + 1% (v/v) MSO", "value": 85, "unit": "%"}, {"measurement": "Herbicide injury, 0 to 100% phytotox rating", "setting": "construct AMATU_PPO2 L397G_F420M, 50 g ai/ha + 1% (v/v) MSO", "value": 40, "unit": "%"}, {"measurement": "Herbicide injury, 0 to 100% phytotox rating", "setting": "construct AMATU_PPO2 L397G_F420M, 100 g ai/ha + 1% (v/v) MSO", "value": 56, "unit": "%"}, {"measurement": "Herbicide injury, 0 to 100% phytotox rating", "setting": "construct AMATU_PPO2 L397G_F420M, 200 g ai/ha + 1% (v/v) MSO", "value": 66, "unit": "%"}, {"measurement": "Herbicide injury, 0 to 100% phytotox rating", "setting": "construct AMATU_PPO2 L397Q_F420M, 50 g ai/ha + 1% (v/v) MSO", "value": 45, "unit": "%"}, {"measurement": "Herbicide injury, 0 to 100% phytotox rating", "setting": "construct AMATU_PPO2 L397Q_F420M, 100 g ai/ha + 1% (v/v) MSO", "value": 61, "unit": "%"}, {"measurement": "Herbicide injury, 0 to 100% phytotox rating", "setting": "construct AMATU_PPO2 L397Q_F420M, 200 g ai/ha + 1% (v/v) MSO", "value": 73, "unit": "%"}, {"measurement": "Herbicide injury, 0 to 100% phytotox rating", "setting": "construct AMATU_PPO2 L397Q_F420V, 50 g ai/ha + 1% (v/v) MSO", "value": 69, "unit": "%"}, {"measurement": "Herbicide injury, 0 to 100% phytotox rating", "setting": "construct AMATU_PPO2 L397Q_F420V, 100 g ai/ha + 1% (v/v) MSO", "value": 66, "unit": "%"}, {"measurement": "Herbicide injury, 0 to 100% phytotox rating", "setting": "construct AMATU_PPO2 L397Q_F420V, 200 g ai/ha + 1% (v/v) MSO", "value": 83, "unit": "%"}, {"measurement": "Herbicide injury, 0 to 100% phytotox rating", "setting": "construct AMATU_PPO2 R128A_F420V, 50 g ai/ha + 1% (v/v) MSO", "value": 51, "unit": "%"}, {"measurement": "Herbicide injury, 0 to 100% phytotox rating", "setting": "construct AMATU_PPO2 R128A_F420V, 100 g ai/ha + 1% (v/v) MSO", "value": 69, "unit": "%"}]}
